Source: ChEMBL document CHEMBL1146739, “Alpha,alpha-trehalose derivatives bearing guanidino groups as inhibitors to HIV-1 Tat-TAR RNA interaction in human cells” (Bioorg Med Chem Lett, 2004)

tested on: Nucleic Acid; experiment: Inhibitory activity against TatTAR RNA interaction in human cells by Tat-dependent HIV-1 long terminal repeats (LTR)-driven chloramphenicol acetyltransferase assay at 3 uM concentration; decreased from 69.5 to 44.2; format: cell-based; set-up: unit not given here

| Compound | Activity |
| --- | --- |
| N=C(N)NCC1OC(OC2OC(CNC(=N)N)C(O)C(O)C2O)C(O)C(O)C1O (centres undefined) | 44.2 |
| NC(N)=NCCCC(N)C(=O)NCC1OC(OC2OC(CNC(=O)C(N)CCCN=C(N)N)C(O)C(O)C2O)C(O)C(O)C1O (centres undefined) | 44.2 |
| N=C(N)NCC(=O)NCC1OC(OC2OC(CNC(=O)CNC(=N)N)C(O)C(O)C2O)C(O)C(O)C1O (centres undefined) | 44.2 |
| N=C(N)NCCCC(=O)NCC1OC(OC2OC(CNC(=O)CCCNC(=N)N)C(O)C(O)C2O)C(O)C(O)C1O (centres undefined) | 44.2 |
